The values below come from patent publication US5218115A, “Cholecystokinin antagonists” (Merck & Co., Inc., priority 1992, dated 1993).

“Also recorded” adds a separate entry of the source. Read-outs that look alike come from different tables or passages of the source. Square brackets hold non-standard residues; d marks the D form. Peptide text beside a SMILES is read from it. * marks the point of attachment. sY = N[C@@H](Cc1ccc(OS(=O)(=O)O)cc1)C(=O)O; Cbz = O=C(OCc1ccccc1)*; Boc = CC(C)(C)OC(=O)*

One assay concerns the target T1, CCK receptor (brain) (Cavia porcellus, UniProt H0VZC5).
T1 construct: the cortex was removed and homogenized in 25 mL ice-cold 0.32M sucrose; from tissue; host or cells: guinea pig brain cortex P2 membranes (male Hartley)
T1 sequence (H0VZC5 1-426): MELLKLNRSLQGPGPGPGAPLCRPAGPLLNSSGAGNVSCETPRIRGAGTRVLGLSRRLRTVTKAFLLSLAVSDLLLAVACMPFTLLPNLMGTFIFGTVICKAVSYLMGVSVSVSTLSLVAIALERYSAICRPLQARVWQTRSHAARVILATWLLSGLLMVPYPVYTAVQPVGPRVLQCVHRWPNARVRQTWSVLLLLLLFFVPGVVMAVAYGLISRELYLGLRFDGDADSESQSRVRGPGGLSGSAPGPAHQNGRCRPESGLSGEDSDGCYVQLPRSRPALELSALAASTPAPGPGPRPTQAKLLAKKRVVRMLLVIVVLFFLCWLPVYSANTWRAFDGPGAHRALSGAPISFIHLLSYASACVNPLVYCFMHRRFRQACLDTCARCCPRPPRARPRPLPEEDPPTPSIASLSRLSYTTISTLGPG
Nature of the assay: CCK Receptor Binding (Brain), inhibition of 125I-CCK-8 binding. Further details: species or system Male Hartley guinea pigs. On the procedure: CCK-8 sulphated was radiolabelled and the binding was performed according to the description for the pancreas method with minor modifications.
Male Hartley guinea pigs (300-500 g) were sacrificed by decapitation and the cortex was removed and homogenized in 25 mL ice-cold 0.32M sucrose. The homogenates were centrifuged at 1000 g for 10 minutes and the resulting supernatant was recentrifuged at 20,000 g for 20 minutes. […] All assays were run in duplicate. The reaction mixtures were incubated at 25° C. for 2 hours and then the reaction was terminated on Whatman GF/C filters by rapid filtration (Brandell 24 well cell Harvester) with 3×5 ml washes of cold 100 mM NaCl. The radioactivity on the filters was then counted with a LKB gamma counter.
(§1) Drug displacement studies were performed with at least 10 concentrations of compounds of formula 1 and the IC50 values were determined by regression analysis.

For the next assay, the system named is brain CCK (CCK-B). The conditions noted are these: in words; cited from earlier work.
A further assay concerns CCK receptor. The conditions noted are these: in words; cited from earlier work.
The next assay has as its target T2, CCK receptor (pancreas) (Rattus norvegicus, UniProt P30551).
T2 construct: The whole pancreas was dissected free of fat tissue and was homogenized; from tissue; host or cells: rat pancreas membranes (male Sprague-Dawley)
T2 sequence (P30551 1-444): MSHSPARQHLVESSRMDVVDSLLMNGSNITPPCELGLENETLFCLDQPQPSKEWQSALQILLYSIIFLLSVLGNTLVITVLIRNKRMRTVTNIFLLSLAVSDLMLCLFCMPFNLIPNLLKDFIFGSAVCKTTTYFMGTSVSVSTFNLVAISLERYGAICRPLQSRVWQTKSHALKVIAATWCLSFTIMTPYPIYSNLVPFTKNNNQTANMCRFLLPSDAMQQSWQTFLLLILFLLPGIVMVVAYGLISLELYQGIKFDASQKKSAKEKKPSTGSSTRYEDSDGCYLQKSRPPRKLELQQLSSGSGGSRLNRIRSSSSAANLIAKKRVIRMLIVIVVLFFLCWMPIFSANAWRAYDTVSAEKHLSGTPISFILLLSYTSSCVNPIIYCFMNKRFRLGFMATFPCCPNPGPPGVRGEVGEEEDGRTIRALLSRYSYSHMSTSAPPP
As to the kind of experiment: CCK Receptor Binding (Pancreas), inhibition of 125I-CCK-8 binding. The conditions noted are these: 125I-CCK-8 50 pM, 25° C., 2 hours. Set-up: species or system Male Sprague-Dawley rats. On the procedure: CCK-8 sulphated was radiolabelled with ^125 I-Bolton Hunter reagent (2000 Ci/mmole). Receptor binding was performed according to Chang and Lotti (Proc. Natl. Acad. Sci. 83, 4923-4926, 1986) with minor modifications.
Male Sprague-Dawley rats (150-200 g) were sacrificed by decapitation. The whole pancreas was dissected free of fat tissue and was homogenized in 25 volumes of ice-cold 10 mM Hepes buffer with 0.1% soya bean trypsin inhibitor (pH 7.4 at 25° C.) with a Kinematica Polytron. The homogenates were centrifuged at 47,800 g for 10 min. Pellets were resuspended in 10 volumes of binding assay buffer (20 mM Hepes, 1 mM EGTA, 5 mM MgCl2, 150 mM NaCl, bacitracin 0.25 mg/ml, soya bean trypsin inhibitor 0.1 mg/ml, and bovine serum albumin 2 mg/ml, pH 6.5 at 25° C.) using a teflon homogenizer, 15 strokes at 500 rpm. The homogenate was further diluted in binding assay buffer to give a final concentration of 0.5 mg original wet weight/1 ml buffer. […] All assays were run in duplicate. […] The radioactivity on the filters was counted with a LKB gamma counter.
as §1

The target in assay [1] is T3, Gastrin receptor (gastric glands) (Cavia porcellus, UniProt H0VZC5).
T3 construct: from tissue; host or cells: guinea pig gastric mucosal glands (male Hartley)
T3 sequence (H0VZC5 1-426): T1 sequence (H0VZC5 1-426)
As to the kind of experiment: Gastrin Receptor Binding in Guinea Pig Gastric Glands, 125I-gastrin. The conditions noted are these: 125I-gastrin 0.1 nM, 25° C., 30 minutes, read-out: CCK RECEPTOR BINDING RESULTS IC50, 125I-Gastrin Gastric Glands. Further details: species or system guinea pigs, male Hartley. As for the experimental part:
Gastrin antagonist activity of compounds of Formula I is determined using the following assay.
A. Gastrin Receptor Binding in Guinea Pig Gastric Glands
Guinea pig gastric mucosal glands were prepared by the procedure of Chang et al., Science 230, 177-179 (1985) with slight modification. Gastric mucosa from guinea pigs (300-500 g body weight, male Hartley) were isolated by scraping with a glass slide after washing stomachs in ice-cold, aerated buffer consisting of the following: 130 mM NaCl, 12 mM NaHCO3, 3 mM NaH2 PO4, 3 mM Na2 HPO4, 3 mM K2 HPO4, 2 mM MgSO4, 1 mM CaCl2, 5 mM glucose and 4 mM L-glutamine, 50 mM HEPES, 0.25 mg/ml bacitracin, 0.10 mg/ml soya bean trypsin inhibitor, 0.1 mg/ml bovine serum albumin, at pH 6.5, and then incubated in a 37° C. shaking water bath for 40 minutes in buffer containing 1 mg/ml collagenase and bubbled with 95% O2 and 5% CO2. The tissues were passed twice through a 5 ml syringe to liberate the gastric glands, and then filtered through Nitex #202 gauge nylon mesh. The filtered glands were centrifuged at 272 g for 5 minutes and washed twice by resuspension in 25 ml buffer and centrifugation.
The washed guinea pig gastric glands prepared as above were resuspended in 25 ml of standard buffer. […] The radioactivity on the filters was measured using a LKB gamma counter.

A further assay concerns gastrin. The conditions noted are these: in words, in vitro; cited from earlier work.
Setting [2] is: guinea pig cortex, 125I-CCK-8 50 pM, 25° C., 2 hours, read-out: CCK RECEPTOR BINDING RESULTS IC50, 125I-CCK Brain.

One may read the IC50 as the midpoint of a concentration-inhibition curve. `Cc1cccc(NC(=O)NC2N=C(c3ccccc3)c3ccccc3N(Cc3n[nH]c(C)n3)C2=O)c1` (racemic) [Example 4, N-{1,3-Dihydro-1-[5-(2-methyl-1,3,4-triazolo)-methylene]-2-oxo-5-phenyl-1H-1,4-benzodiazepin-3-yl}-N'-{[3-methylphenyl]-urea}]: the IC50 at CCK receptor (brain) (setting [2]) amounted to 10 nM.

Regarding `Cc1cccc(NC(=O)N[C@@H]2N=C(c3ccccc3)c3ccccc3N(C)C2=O)c1` [(R)-N-(2,3-dihydro-1-methyl-2-oxo-5-phenyl-1H-1,4-benzodiazepin-3-yl)-N^1-(3-methylphenyl) urea], the “CCK-B receptor antagonism / selectivity” value with brain CCK (CCK-B) is “potent and selective antagonist of CCK-B receptors”.

Turning to `CSCC[C@H](NC(=O)OC(C)(C)C)C(=O)N[C@@H](CC(=O)O)C(=O)N[C@@H](Cc1ccccc1)C(N)=O` [Boc-Met-Asp-Phe-NH2] (Boc-Met-Asp-Phe-NH2), the CCK antagonist activity entry in the assay with CCK receptor is reported as “can function as CCK antagonists”.

Consider `CSCC[C@H](NC(=O)[C@H](Cc1ccc(OS(=O)(=O)O)cc1)NC(=O)OCc1ccccc1)C(=O)NCC(=O)N[C@@H](Cc1c[nH]c2ccccc12)C(=O)N[C@@H](CCSC)C(=O)N[C@@H](CC(=O)O)C(N)=O` [Cbz-Tyr(SO3 H)-Met-Gly-Trp-Met-Asp-NH2] (Cbz-[sY]MGWMD-NH2), for which, in the assay with CCK receptor, the CCK antagonist activity entry is “can function as CCK antagonists; also recorded: partial agonist”.

Regarding `Cc1cccc(NC(=O)NC2N=C(c3ccccc3)c3ccccc3N(Cc3c[nH]cn3)C2=O)c1` (stereo not shown) [Example 1, N-{1,3-Dihydro-1-[1H-4-imidazolyl]methyl-2-oxo-5-phenyl-1H-1,4-benzodiazepin-3-yl}-N'-{[3-methylphenyl]-urea}], the IC50 at CCK receptor (pancreas) was determined as 11 nM; at CCK receptor (brain) (setting [2]) it was 7.9 nM; in assay [1], 3.6 nM.

With `O=C(Nc1cccc(-c2nn[nH]n2)c1)N[C@@H]1N=C(c2ccccc2)c2ccccc2N(CC(=O)N2CCCC2)C1=O` [Example 2, N-{3-(R)-1,3-Dihydro-1-(pyrrolidinylcarbonyl)methyl-2-oxo-5-phenyl-1H-1,4-benzodiazepin-3(R)-yl}-N'-{[3-(1H-tetrazol-5-yl)phenyl]urea}], the IC50 at CCK receptor (brain) (setting [2]) turned out to be 0.12 nM.

For `Cc1cccc(NC(=O)NC2N=C(c3ccccc3)c3ccccc3N(Cc3ncc[nH]3)C2=O)c1` (stereo not shown) [Example 3, N-{1,3-Dihydro-1-[1H-2-imidazolyl]methyl-2-oxo-5-phenyl-1H-1,4-benzodiazepin-3-yl}-N'-{[3-methylphenyl]-urea}], the IC50 at CCK receptor (pancreas) turned out to be 258 nM; at CCK receptor (brain), 58.9 nM.

On to `CSCC[C@H](N)C(=O)N[C@@H](CC(=O)O)C(=O)N[C@@H](Cc1ccccc1)C(N)=O` [Met-Asp-Phe-NH2] (H-Met-Asp-Phe-NH2), for which the CCK antagonist activity result in the assay with CCK receptor is “can function as CCK antagonists”.

With `CCCC(=O)Nc1nc2c(ncn2[C@@H]2O[C@@H]3COP(=O)(O)O[C@H]3[C@H]2OC(=O)CCC)c(=O)[nH]1` [dibutyryl cyclic GMP], the CCK antagonist activity result with CCK receptor is “most potent”.

As for `CCCN(CCC)C(=O)C(CCC(=O)O)NC(=O)c1ccccc1` (stereo not shown) [proglumide], the gastrin antagonist activity entry in the assay with gastrin is recorded as “very weak in vitro antagonists”.
